Reference: patent US6723699B1, “Treating disorders by application of insulin-like growth factors and analogs” (Cephalon, Inc., priority 1989, dated 2004)

How the values were obtained:
[1] = system: septal cultures; experiment: Number of AChE positive cells in rat septal cultures; type: cell-based; conditions: 100 nM IGF-I; 4×10^5 cells/cm^2, medium with 10% bovine calf serum
Experimental: Dissociated cell cultures of the septal region of day 17 embryonic rats were prepared by standard techniques known to those skilled in the art, using enzymatic (Dispase, Collaborative Research) dissociation of tissue. Cells were seeded (plated) at 6×10^5 cells/cm^2 in poly-1-ornithine-laminin coated plastic tissue culture wells, and cultured in serum-free N2 medium (Bottenstein et al., 1978) for 5 days without feeding. Control (uninduced) cultures received no added growth factors; induced cultures received the concentrations of IGF-I and NGF indicated in FIGS. 9 and 10 at the time of plating. NGF is commercially available. ChAT was assayed by the method described in McManaman, et al. Dev. Biol. 125:311-320 (1988). AChE staining was performed according to the method of Hartikka and Hefti, J. Neuroscience 8:2967-2985 (1988).
We have shown that under specific culture conditions (4×10^5 cells/cm^2 in the presence of medium containing 10% bovine calf serum), IGF-I increased the number of AChE positive cells by 3-4 fold over control, growth factor-free cultures, FIG. 12.

[2] = system: cultured rat cortical cells; experiment: [3H]-leucine incorporation in cultured rat cortical cells; type: cell-based; conditions: low density 24 hour mixed cortical cultures
Experimental: The ability of IGF-I and a synthetic derivative of IGF-II (IGF-II(54-67)) to increase the incorporation of [^3H]-leucine and to promote the survival of neurite bearing cells was examined in cultured rat cortical cells (the numbers “54-67” in IGF-II indicate the fragment includes amino acid residues 54-67 of native IGF-II).
Measurements were performed, using standard techniques known to those skilled in the art, on dissociated cortical cells obtained from day 18-19 embryonic rats. Cells were seeded at 1.5×10^4/cm^2 on poly-1-ornithine-laminin coated plastic tissue culture cells in serum-free N2 medium (Bottenstein et al. Proc. Natl. Acad. Sci. U.S.A. 76: 514-517 (1978)). [^3H]-leucine was added to cells at plating for the incorporation assay. Cultures were terminated 24 hours after plating and measured for either [^3H]-leucine incorporation or for the number of neuritic cells by microscopic examination.

[3] = system: motoneurons; experiment: Motoneuron survival in ovo (developmentally regulated motoneuron death); type: in vivo, chick; conditions: 5 μg/egg daily onto chorioallantoic membrane, E6 to E9, counted E10
Description: In the spinal cord, as well as in other regions of the nervous system, neurons are over-produced during development, and undergo a process of naturally occurring cell death prior to […] (reviewed in Oppenheim, R. W. 1991, Annu Rev. Neurosci. 14:453-501). During this period, approximately 50% of the motoneurons degenerate and die. Certain neurotrophic agents applied exogenously during this period prevent or retard this form of neuronal death (e.g., partially purified muscle extracts and ciliary neurotrophic factor reduce motor neuron death in chick embryos (McManaman et al., 1990, Neuron 4:891-898; Oppenheim et al. 1991, Science 25:1616-1617).
The IGFs were administered daily onto chorioallantoic membrane (5 μg/egg in a volume of 50 μl) from embryonic day E6 to E9 through a small window cut into the shell of the egg. Control embryos received an equal volume of vehicle (phosphate buffered saline) alone on E10, the embryos were removed, sacrificed and the spinal cords sectioned. Motoneurons (identified morphologically in silver-stained sections) were counted in serial sections from both treated and control embryos. […] The differences between effects produced by the different IGFs used were not statistically significant (Student t test […]).

[4] = system: brain ornithine decarboxylase; experiment: Induction of brain ornithine decarboxylase after intracerebral injection, 4 day old rats; type: in vivo, rat; conditions: 6 hours
Experimental: The in vivo activity of IGF-I, IGF-II or synthetic peptide derivatives of these molecules was tested using a biochemical marker for CNS neurotrophic activity, the induction of brain ornithine decarboxylase. The induction (i.e. increased activity) of ornithine decarboxylase has been reported to be a general marker for the actions of a variety of trophic factors. (Schwartz et al., Dev. Brain Res. 1:403-413 (1981); Kanje et al., Brain Res. 381:24-28 (1986); Russell et al., Life Sci. 19:1297-1306 (1976); MacDonnell et al. Proc. Natl. Acad. Sci. USA 74, 4681-4684 (1977); […] et al. Proc. Natl. Acad. Sci. USA 82, 4365-4368 (1985)). Sprague-Dawley rats, 4 days old, were injected intracerebrally (in the area of the lateral ventricle) with 5 μl of 0.1 M phosphate-buffered saline (PBS) containing IGF-I, IGF-II or a synthetic peptide derivative (1.25-2.5 μg dose, with 6 animals per treatment group). After 6 hours, the brains were removed, and ornithine decarboxylase was assayed essentially as described by Lewis et al., Proc. Natl. Acad. Sci. USA 75:1021-1023 (1978).

[5] = system: 14.5 day embryonic rat spinal cord neurons; experiment: Choline acetyltransferase activity in 14.5 day embryonic rat spinal cord neurons, serum-free; type: cell-based; conditions: serum-free and insulin-free N2 medium, 48 hr
Experimental: The activity of IGF-I, IGF-II and IGF-III was assayed on dissociated cultures of 14.5 day embryonic rat spinal cord neurons. The spinal cords were removed from embryos and dissociated in 0.05% trypsin in Dulbecco's Phosphate Buffered Saline (DPBS). Dissociated cells were seeded onto poly-1-ornithine substrates in 96 well microtiter plates at 2×10^5 cells/well in 200 μl of serum-free and insulin-free N2 medium (Bottenstein and Sato, 1979 supra) containing 0.05% bovine serum albumin. After a 48 hr incubation at 37° C. in a humidified atmosphere of 5% CO2, 95% air, cultures were assayed for choline acetyltransferase activity according to a modification (McMananman et al., Dev. Bio., 25:311-320 (1988)) of the technique described by Fonnum (Fonnum, J. Neurochem. 24:405-409 (1975)).

GPETLCGAELVDALQFVCGDRGFYFNKPTGYGSSS-RRAPQTGIVDECCFRSCDLRRLEMYCAPLKPAKSA [IGF-I]
increase in number of AChE positive cells over control [1]: 3-4 fold
[3H]-leucine incorporation (in words) [2]: increased [^3H]-leucine incorporation
prevention of developmentally regulated motoneuron death (in words) [3]: partially prevented developmentally regulated motoneuron death
brain ornithine decarboxylase activity (in words) [4]: dose-dependent increase in brain ornithine decarboxylase activity
choline acetyltransferase activity (in words) [5]: substantial, dose-dependent increase in choline acetyltransferase activity
